Results: PubChem BioAssay AID504443 (Sanford-Burnham Center for Chemical Genomics, 2011)
Calls of active or inactive are those of the source. The rule behind the calls is not given here.

tested on: AML12 mouse hepatocytes, cytotoxicity; test: AML12 mouse hepatocyte viability loss – cell-based, cytotoxicity control, SAR follow-up (AID 504443)

Row | Compound | IC50
1 | CCOc1ccc(CCNC(=O)c2cc3sc(Cl)cc3n2C)cc1OCC | > 10 µM (inactive)
2 | CCOc1cc(CCNC(=O)c2ccc(N3CCOCC3)s2)ccc1OC | > 10 µM (inactive)
3 | COc1cc(CNC(=O)CSc2cc(=O)n(C)c3ccccc23)cc(OC)c1OC | > 10 µM (inactive)
4 | CCOc1cc(CCNC(=O)c2cc3sccc3[nH]2)ccc1OC | > 10 µM (inactive)
5 | COc1ccc(CCNC(=O)c2cc(-c3ccccc3)c(N3CCOCC3)s2)cc1OC | > 10 µM (inactive)
6 | O=C(NCCc1ccc2c(c1)OCO2)c1ccc(N2CCOCC2)s1 | > 10 µM (inactive)
7 | COc1ccc(CCNC(=O)COC(=O)c2cc(OC)c(OC)cc2OC)cc1OC | > 10 µM (inactive)
8 | Cn1c(=O)cc(SCC(=O)NCc2ccc3c(c2)OCO3)c2ccccc21 | > 10 µM (inactive)
9 | CCOc1ccc(CCNC(=O)c2cc3ccsc3n2CC)cc1OCC | > 10 µM (inactive)
10 | CCOc1cc(CCNC(=O)CSc2cc(=O)n(C)c3ccccc23)ccc1OC | > 10 µM (inactive)
11 | CCOc1ccc(CCNC(=O)Cn2ncn3nc(-c4ccc(OC)cc4)cc3c2=O)cc1OCC | > 10 µM (inactive)
12 | CCOc1ccc(CCNC(=O)COC(=O)c2cc(OC)c(OC)c(OC)c2)cc1OCC | > 10 µM (inactive)
13 | CCOc1ccc(CCNC(=O)Cn2nc(C)c3c(C)n(-c4ccccc4)nc3c2=O)cc1OCC | > 10 µM (inactive)
14 | CCn1c(C(=O)NCc2ccc3c(c2)OCO3)cc2sccc21 | > 10 µM (inactive)
15 | CCOc1ccc(CCNC(=O)COc2cc(=O)n(C)c3ccccc23)cc1OCC | > 10 µM (inactive)
16 | CCOc1ccc(CCNC(=O)CSc2cc(=O)n(C)c3cc(Cl)ccc23)cc1OCC | > 10 µM (inactive)
17 | CCOc1ccc(CCNC(=O)c2cc3sccc3n2C)cc1OCC | > 10 µM (inactive)
18 | CCOc1ccc(CCNC(=O)COC(=O)c2ccc(OC)c(OC)c2OC)cc1OCC | > 10 µM (inactive)
19 | CCOc1ccc(CCNC(=O)CCC(=O)N2CCOc3ccccc32)cc1OCC | > 10 µM (inactive)
20 | CCn1c(C(=O)NCCc2ccc(OC)c(OC)c2)cc2sc(Cl)cc21 | > 10 µM (inactive)
21 | O=C(NCCc1ccc2c(c1)OCO2)c1cc2sccc2[nH]1 | > 10 µM (inactive)
22 | CCOc1ccc(CCNC(=O)CCc2nc(-c3ccc(OC)cc3)no2)cc1OCC | > 10 µM (inactive)
23 | CCOc1ccc(CCNC(=O)CCC(=O)N2CCSc3ccccc32)cc1OCC | > 10 µM (inactive)
24 | COc1cc(CNC(=O)c2cc3ccsc3n2C)cc(OC)c1OC | > 10 µM (inactive)
25 | CCn1c(C(=O)Nc2ccc(OC)c(OC)c2)cc2sccc21 | > 10 µM (inactive)
26 | COc1ccc(CCNC(=O)c2cc3sc(Cl)cc3n2C)cc1OC | > 10 µM (inactive)

Row | Compound | IC50
27 | CCOc1ccc(CCNC(=O)c2cc(-c3ccccc3)c(N3CCOCC3)s2)cc1OCC | > 10 µM (inactive)
28 | CCOc1ccc(CCNC(=O)Cn2cccc2C(=O)c2ccccc2C)cc1OCC | > 10 µM (inactive)
29 | COc1ccc(CNC(=O)c2ccc(N3CCOCC3)s2)cc1OC | > 10 µM (inactive)
30 | CCn1c(C(=O)Nc2ccc(OC)c(OC)c2)cc2ccsc21 | > 10 µM (inactive)
31 | Cn1c(C(=O)NCc2ccc3c(c2)OCO3)cc2ccsc21 | > 10 µM (inactive)
32 | Cn1c(C(=O)Nc2ccc3c(c2)OCO3)cc2ccsc21 | > 10 µM (inactive)
33 | CCOc1cc(CCNC(=O)COc2cc(=O)n(C)c3ccccc23)ccc1OC | > 10 µM (inactive)
34 | CCOc1ccc(CCNC(=O)c2cc3sccc3[nH]2)cc1OCC | > 10 µM (inactive)
35 | CCOc1ccc(CCNC(=O)CCc2nnc3ccc(N4CCCCC4)nn23)cc1OCC | > 10 µM (inactive)
36 | CCOc1ccc(CCNC(=O)CSc2cc(=O)n(CC)c3ccccc23)cc1OCC | > 10 µM (inactive)
37 | CCOc1ccc(CCNC(=O)c2ccc(N3CCOCC3)s2)cc1OCC | > 10 µM (inactive)
38 | CCOc1ccc(CCNC(=O)C2CC=CCC2C(=O)OC(C)C)cc1OCC (stereo not drawn) | > 10 µM (inactive)
39 | O=C(NCCc1ccc2c(c1)OCO2)c1cc(-c2ccccc2)c(N2CCOCC2)s1 | > 10 µM (inactive)
40 | CCOc1cc(CCNC(=O)c2cc3ccsc3n2C)ccc1OC | > 10 µM (inactive)
41 | COc1ccc(CCNC(=O)Cn2cccc2C(=O)c2ccccc2C)cc1OC | > 10 µM (inactive)
42 | CCOc1ccc(CCNC(=O)c2cc3ccsc3n2C)cc1OC | > 10 µM (inactive)
43 | CCOc1cc(CCNC(=O)c2cc3ccccc3n2C)ccc1OC | > 10 µM (inactive)
44 | CCOc1ccc(CCNC(=O)CSc2cc(=O)n(C)c3ccccc23)cc1OCC | > 10 µM (inactive)
45 | COc1ccc(NC(=O)c2cc3ccsc3n2C)cc1OC | > 10 µM (inactive)
46 | CCOc1ccc(CCNC(=O)c2cc3sccc3n2CC)cc1OC | > 10 µM (inactive)
47 | CCn1c(C(=O)NCCc2ccc(OC)c(OC)c2)cc2ccsc21 | > 10 µM (inactive)
48 | CCn1c(C(=O)NCc2cc(OC)c(OC)c(OC)c2)cc2ccsc21 | > 10 µM (inactive)
49 | Cn1c(C(=O)NCCc2ccc3c(c2)OCO3)cc2ccccc21 | > 10 µM (inactive)
50 | CCn1c(C(=O)NCc2cc(OC)c(OC)c(OC)c2)cc2sccc21 | > 10 µM (inactive)
51 | COc1ccc(CCNC(=O)CSc2cc(=O)n(C)c3ccccc23)cc1OC | > 10 µM (inactive)
52 | CCOc1ccc(CCNC(=O)c2nnc(Cc3ccc(F)cc3)o2)cc1OCC | > 10 µM (inactive)

Row | Compound | IC50
53 | CCOc1ccc(CCNC(=O)CCc2nnc3ccc(N4CCCC4)nn23)cc1OCC | > 10 µM (inactive)
54 | CCn1c(C(=O)Nc2ccc3c(c2)OCO3)cc2sccc21 | > 10 µM (inactive)
55 | CCOc1ccc(CCNC(=O)COC(=O)c2cc(OC)cc(OC)c2)cc1OCC | > 10 µM (inactive)
56 | COc1ccc(CNC(=O)c2cc3ccsc3n2C)cc1OC | > 10 µM (inactive)
57 | CCn1c(C(=O)Nc2ccc3c(c2)OCO3)cc2ccsc21 | > 10 µM (inactive)
58 | CCOc1ccc(CCNC(=O)CSc2cc(=O)n(C)c3ccccc23)cc1OC | > 10 µM (inactive)
59 | CCOc1ccc(CCNC(=O)CN2C(=O)c3cccnc3Oc3ccc(C)cc32)cc1OCC | > 10 µM (inactive)
60 | CCOc1ccc(CCNC(=O)c2cc3sccc3n2CC)cc1OCC | > 10 µM (inactive)
61 | COc1ccc(CNC(=O)c2cc(-c3ccccc3)c(N3CCOCC3)s2)cc1OC | > 10 µM (inactive)
62 | Cn1c(=O)cc(SCC(=O)NCCc2ccc3c(c2)OCO3)c2ccccc21 | > 10 µM (inactive)
63 | CCOc1ccc(CCNC(=O)Cn2cccc2C(=O)c2ccccc2)cc1OCC | > 10 µM (inactive)
64 | CCOc1ccc(CCNC(=O)c2cc3ccsc3n2CC)cc1OC | > 10 µM (inactive)
65 | COc1ccc(CNC(=O)CSc2cc(=O)n(C)c3ccccc23)cc1OC | > 10 µM (inactive)
66 | COc1ccc(CCNC(=O)c2cc3ccccc3n2C)cc1OC | > 10 µM (inactive)
67 | CCOc1ccc(CCNC(=O)CCOc2cc(C)ccc2C)cc1OCC | > 10 µM (inactive)
68 | CCOc1ccc(CCNC(=O)c2cc(-c3ccccc3)c(N3CCOCC3)s2)cc1OC | > 10 µM (inactive)
69 | CCOc1cc(CCNC(=O)c2cc(-c3ccccc3)c(N3CCOCC3)s2)ccc1OC | > 10 µM (inactive)
70 | CCn1c(C(=O)NCc2ccc(OC)c(OC)c2)cc2ccsc21 | > 10 µM (inactive)
71 | CCOc1cc(CCNC(=O)c2cc3sccc3n2CC)ccc1OC | > 10 µM (inactive)
72 | COc1ccc(CCNC(=O)c2cc3sccc3n2C)cc1OC | > 10 µM (inactive)
73 | CCOc1ccc(CCNC(=O)CN2CCN(Cc3ccccc3C)C2=O)cc1OCC | > 10 µM (inactive)
74 | CCOc1ccc(CCNC(=O)c2cc3ccsc3n2C)cc1OCC | > 10 µM (inactive)
75 | CCOc1ccc(CCNC(=O)CCC(=O)N2CCOc3ccc(C)cc32)cc1OCC | > 10 µM (inactive)
76 | COc1ccc(CCNC(=O)c2cc(-c3ccccc3)c(N3CCOCC3)s2)c(OC)c1OC | > 10 µM (inactive)
77 | Cn1c(=O)cc(SCC(=O)Nc2ccc3c(c2)OCO3)c2ccccc21 | > 10 µM (inactive)
78 | CCOc1ccc(CCNC(=O)c2cc3ccccc3n2C)cc1OC | > 10 µM (inactive)
